# From patent publication US20060264455A1 (priority 2005, published 2006)
# Key:
# motor skills on rotorod = assay: Toxicity Model (TOX), rotorod, mice; format: in vivo; settings: for N/F (mice showing an effect / mice tested), TOX: ip; for Behavioral motor impairment, share of mice tested: po
# From the text: (§1) To investigate the neurotoxicity levels of the huperzine compounds, the Toxicity Model (TOX) using a rotorod is employed. The animals (e.g., mice) were trained to stand on an accelerating rotorod rotating at 10 rev min^−1 with a diameter of 3.2 cm. The trained animal can be given the huperzine compound at various doses and the effect of huperzine on their motor skills can be determined. The dose at which the animals fell off the rotorod is the toxic dose.
# (§2) The neurotoxicity of huperzine was tested in the rotorod test. The mice were trained to stand on an accelerating rotorod rotating at 10 rev min^−1 with a diameter of 3.2 cm. The trained animals were given the huperzine at various doses and the effect of huperzine on their motor skills was determined. The dose at which the animals fell off the rotorod was the toxic dose.
# [1] = Toxicity Model (TOX), rotorod, mice; format: in vivo; settings: male, CFI, mouse, in vivo, ip; mice
# From the text: as §1, §2
# [2] = system: 6 Hz limbic seizures (corneal stimulation); assay: animal or person; settings: Mus musculus, ip
# From the text: These three tests are highly predictive of efficacy against human generalized tonic-clonic (MES), generalized myoclonic (sc PTZ), and refractory limbic (6 Hz) seizures, respectively.
# Male, 18-25 g CFI mice and 100-125 g Sprague-Dawley rats (Charles River Laboratories, Wilmington, Mass.) were used as the experimental animals. Animals were pretreated intraperitoneally (i.p.) with increasing doses of HupA and tested at various times after administration for protection against tonic extension (MES test), minimal clonic (s.c. PTZ test), limbic (6 Hz), or secondarily generalized (kindled rat) seizures. Seizure testing was carried out as follows. For the MES and 6 Hz tests, a drop of anesthetic/electrolyte solution (0.5% tetracaine hydrochloride in 0.9% saline) was applied to the eyes of each animal prior to placement of the corneal electrodes.
compound,measurement,setting,value
C/C=C1\[C@H]2C=C(C)C[C@]1(N)c1ccc(=O)[nH]c1C2 [Huperzine A],Toxicity,"motor skills on rotorod; 5 mg/kg I.P., within 30 minutes post administration",toxic in all animals
same,Behavioral impairment,"motor skills on rotorod; mouse, in vivo",marked motor impairment
same,"N/F (mice showing an effect / mice tested), TOX","motor skills on rotorod; mouse, in vivo, 0.1 mg/kg, 4 h",0/4
same,"N/F (mice showing an effect / mice tested), TOX","motor skills on rotorod; mouse, in vivo, 0.3 mg/kg, 4 h",0/4
same,"N/F (mice showing an effect / mice tested), TOX","motor skills on rotorod; mouse, in vivo, 1 mg/kg, 0.5 h",4/4
same,"N/F (mice showing an effect / mice tested), TOX","motor skills on rotorod; mouse, in vivo, 1 mg/kg, 4 h",2/2
same,"N/F (mice showing an effect / mice tested), TOX","motor skills on rotorod; mouse, in vivo, 3 mg/kg, 0.5 h",8/8
same,"N/F (mice showing an effect / mice tested), TOX","motor skills on rotorod; mouse, in vivo, 3 mg/kg, 4 h",4/4
same,"N/F (mice showing an effect / mice tested), TOX","motor skills on rotorod; mouse, in vivo, 10 mg/kg, 0.5 h",4/4
same,"N/F (mice showing an effect / mice tested), TOX","motor skills on rotorod; mouse, in vivo, 10 mg/kg, 4 h",2/2
same,"N/F (mice showing an effect / mice tested), TOX","motor skills on rotorod; mouse, in vivo, 30 mg/kg, 0.5 h",4/4
same,"N/F (mice showing an effect / mice tested), TOX","motor skills on rotorod; mouse, in vivo, 100 mg/kg, 0.5 h",8/8
same,"N/F (mice showing an effect / mice tested), TOX","motor skills on rotorod; mouse, in vivo, 300 mg/kg, 0.5 h",4/4
same,"Behavioral motor impairment, share of mice tested","motor skills on rotorod; mouse, in vivo, 2 mg/kg",75%
same,"Behavioral motor impairment, share of mice tested","motor skills on rotorod; mouse, in vivo, 4 mg/kg",100%
same,TD50,[1],0.83 mg/kg
same,ED50,"[2]; 1 h, 22 mA",0.279 mg/kg
same,ED50,"[2]; 1 h, 32 mA",0.339 mg/kg
same,ED50,[2]; 22 mA,0.28 mg/kg
same,ED50,[2]; 32 mA,0.34 mg/kg
same,ED50,[2]; 44 mA,0.78 mg/kg
